Entries after “also recorded” stand apart in the source; their conditions may differ. Where two headings read alike, the source gives them in different places.
How the values were obtained:
MO7e cells [1] = test: 6MP cytotoxicity in MO7e cells and CRISPR knock-outs; format: cell-based, Human; details: MO7e vs. ABCC4 KO; Antimycin A 10 nM, in words
Experimental: HEK293 cells transfected with ABCC4 or ABCC4ΔC in the presence or absence of MPP1, MO7e, and Meg01 cells were treated with 10 concentrations of 6MP, ranging from 1 to 1000 µM, for 96 h. Cell viability analysis was determined using CellTiter Glo (Promega). Where applicable, cell penetrating peptides conjugated to the PDZ-binding motif of ABCC4 (labeled either ABCC4-PDZ or ABCC4ΔC) were added to the cells at 20 μM. Media was changed daily and new ABCC4-PDZ/ABCC4ΔC peptide and 6MP was added. IC50 values were calculated using GraphPad Prism.
CRISPR-Cas9 plasmids containing gRNAs against ABCC4 ([…]) and MPP1 ([…]) were purchased from Sigma Aldrich. MO7e cells were transiently transfected with constructs containing the gRNA, Cas9 Nickase, and a flurophore. Forty-eight hours after transfection, cells were sorted for fluorescent positive cells and single cells were sorted into individual wells of a 96-well plate. Single-sorted cells were allowed to expand and deletion of the gene of interest was verified by immunoblotting.
The Meg01, MO7e, and ABCC4 KO MO7e cell lines were plated at 1500 cells per well in a 96-well plate. Cells were treated with 10 concentrations of Antimycin A (Santa Cruz) ranging from 0.01 to 1000 μM. Cell viability was determined using CellTiter Glo (Promega). Meg01, MO7e, and ABCC4 KO MO7e cells in the presence or absence of 10 nM Antimycin A were treated with 10 concentrations of 6MP, ranging from 1 to 1000 µM, for 96 h. Cell viability analysis was determined using CellTiter Glo. IC50 values were calculated using GraphPad Prism.

MPP1 = target: T1, MPP1 (Homo sapiens, UniProt Q00013); test: MPP1 protein expression (immunoblot); format: cell-based; details: Antimycin A treatment; Meg01 cells (Supplementary Fig. 6e), in words
T1 construct: incubated with various concentrations of full-length MPP1; His tag (N); S-tag (N); made in house; host or cells: E. coli
T1 sequence (Q00013 1-466): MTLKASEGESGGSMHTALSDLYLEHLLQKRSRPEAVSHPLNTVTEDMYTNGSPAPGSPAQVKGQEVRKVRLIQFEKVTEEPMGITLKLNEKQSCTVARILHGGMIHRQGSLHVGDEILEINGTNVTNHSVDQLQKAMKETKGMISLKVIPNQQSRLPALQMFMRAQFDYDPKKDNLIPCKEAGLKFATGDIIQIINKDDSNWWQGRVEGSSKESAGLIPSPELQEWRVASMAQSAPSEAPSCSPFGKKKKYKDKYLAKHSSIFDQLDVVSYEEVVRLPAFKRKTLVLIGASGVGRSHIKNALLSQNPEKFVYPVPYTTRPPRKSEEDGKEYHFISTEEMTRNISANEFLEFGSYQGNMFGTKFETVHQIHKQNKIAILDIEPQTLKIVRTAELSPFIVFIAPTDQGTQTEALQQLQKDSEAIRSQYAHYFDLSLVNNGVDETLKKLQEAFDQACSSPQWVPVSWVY
From the text: Forty-eight hours after transfection, cells were trypsinized and washed twice in PBS. Cells were lysed in MPER lysis buffer (Pierce) containing 1× protease inhibitor cocktail (Roche). Cell lysates were subjected to three rounds of sonication on ice with a minimum of 15 s of sonication per round. Protein concentration of the lysates was quantified using a Bradford assay (Biorad). Twenty-five micrograms of total protein lysates were loaded and separated by SDS-PAGE on a 10% gel. Proteins were then transferred to a nitrocellulose membrane (GE Healthcare) and probed with antibodies directed against various proteins of interest. The levels of pAcGFP-tagged ABCC4 and ABCC4ΔC were determined using the polyclonal full-length GFP antibody (1:2000, Santa Cruz). The level of MPP1 was detected using the monoclonal p55/MPP1 antibody (1:2500) from Epitomics. Where specified, the levels of ABCC4 were detected by using the rat monoclonal M4I10 antibody (1:2000, Abcam). An anti-Actin antibody was used as a loading control (1:10,000). Secondary antibodies conjugated to HRP (1:2000, GE Healthcare) were used. For co-immunoprecipitation experiments, light chain-specific secondary antibodies (1:5000, Jackson Immunoresearch) was used to prevent cross-contamination with heavy chain antibodies. The Clarity chemiluminescence (BioRad) reagent was used to detect the proteins. […]

MO7e cells [2] = test: Cytarabine cytotoxicity in MO7e cells; format: cell-based, Human; details: in words
Experimental: MO7e cells were seeded at 1500 cells per well of a 96-well plate. Cells were then treated with Cytarabine at increasing concentrations ranging from 0.5 to 500 μM for 4 h in serum-free media. Cells were washed three times with PBS and replaced with fresh complete media for 68 h. Cell viability analysis was determined using CellTiter Glo. Where applicable, cells were treated with 10 nM Antimycin A. IC50 values were calculated using GraphPad Prism.

[3] = system: ABCC4 plasma membrane localization in HEK293 cells expressing MPP1 and GFP-ABCC4; test: ABCC4 plasma membrane localization (confocal microscopy); format: cell-based, Human; details: in words; confocal microscopy
Experimental: Peptides containing or lacking the ABCC4-PDZ motif were fused with the cell penetrating HIV-TAT peptide. These peptides were tested for their effect on ABCC4 plasma membrane localization. HEK293 cells were transfected with MPP1 and GFP-ABCC4 and the ER protein, calreticulin. The plasma membrane was counter-stained with wheat-germ-agglutinin (WGA) labeled with Alexa647 after treatment with either ABCC4-PDZ or ABCC4ΔC peptide.
HEK293 cells were seeded on chambered coverglass slides (LAB-TEK) 48 h before transfection with plasmid DNA (250 ng) encoding pAc-GFP-ABCC4 or ABCC4ΔC and pCal plasmid encoding the ER resident protein calreticulin conjugated to RFP (Origene). Transfection was performed using Lipofectamine 2000 as per the manufacturer’s instructions. Immediately prior to visualizing cells, cells were counterstained with the plasma membrane marker wheat-germ agglutinin (WGA) conjugated to Alexa-647 (Invitrogen). All confocal microscopy images were acquired on a 3i Marianas system configured with an Yokagowa CSU-X spinning disk confocal microscope utilizing a ×63 Zeiss objective, using the 488 (GFP), 561 (RFP), and 660 (far red) laser lines.

[4] = system: mitochondrial complex III; parameters: method as in PMID 6257713; details: in words; cited from earlier work
Experimental: Among the 11,297 chemicals tested, 219 of them (144 unique molecules) had >30% inhibition and were selected for further dose-response analysis using 10 concentrations ranging from 3.5 nM to 70 μM.

[5] = target: T2, ABCC4-PDZ motif and MPP1 interaction (Homo sapiens, UniProt O15439+Q00013); test: biochemical; details: for IC50: 10 concentrations 3.5 nM to 70 μM
T2 sequence (Q00013 1-466): T1 sequence (Q00013 1-466)
T2 sequence (O15439 1301-1325): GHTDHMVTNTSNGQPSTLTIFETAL

CCCCCC[C@H]1C(=O)O[C@H](C)[C@H](NC(=O)c2cccc(NC=O)c2O)C(=O)O[C@@H](C)[C@@H]1OC(=O)CC(C)C [Antimycin A]
effect of Antimycin A on 6MP sensitivity (MO7e cells [1]): shifted the 6MP dose–response curve to the left, but only for cells harboring ABCC4, not ABCC4 KO cells; also recorded: specifically sensitizes ABCC4 expressing MO7e cells, but not ABCC4 KO cells
effect on protein expression of MPP1 (MPP1): unchanged; also recorded: does not reduce the protein expression of MPP1
effect of Antimycin A on cytarabine sensitivity (MO7e cells [2]; MO7e vs. MO7e-ABCC4 knockout, Antimycin A 10 nM): specifically sensitized MO7e cells to Cytarabine, but not MO7e-ABCC4 knockout cells; also recorded: specifically sensitizes ABCC4 expressing MO7e cells, but not ABCC4 KO cells
effect of co-treatment on IC50 for cytarabine (MO7e cells [2]; peer review file): reduce the IC50 for cytarabine
effect on ABCC4 plasma membrane localization [3]: ABCC4 relocalized from the plasma membrane to the cytosol; also recorded: causes ABCC4 to relocalize from the plasma membrane
mitochondrial complex III inhibition [4]: mitochondrial complex III inhibitor at micromolar concentration
IC50 ([5]; 500 nM B-ABCC4, 5 nM His-S-MPP1, 0.7% DMSO, read-out: IC50 for complex disruption (TR-FRET)): ~3 nM
IC50 ([5]; figure value, 500 nM B-ABCC4, 5 nM His-S-MPP1, triplicate, read-out: IC50 for disruption of MPP1 and ABCC4 interaction (TR-FRET)): 3.9 nM
TR-FRET dose response / disruption of interaction ([5]; in words): the most potent
